This data set has as its system SW620/AD300 (doxorubicin-selected P-gp-overexpressing human colon cancer cell) tumour-bearing nude mice. Description: In vivo PDT in tumour-bearing nude mice. Here is the method:
6 weeks age nu/nu female mice were purchased from Charles River. Compound 7 was dissolved into physiological saline at first. Tumor xenograft: 6×10^6 SW620/AD300 cells were subcutaneously (s.c.) injected in the nude mice, the cells were suspension in 150 μL Matrigel (Corning) and saline (1:1, v/v). After a week, the tumor volumes of the mice reached approximately 80 mm^3.
30 SW620/AD300 nude tumour-bearing nude mice were randomly separated into 6 groups and five mice for each group.
Group 1: injected 7 (2 mg/Kg 50 μL) intravenously and irradiate under 800 nm laser (50 mW, 1 kHz, pulse width 35 fs, 5 s/mm) 1 h after injection;
Group 2: injected 7 (2 mg/Kg 50 μL) intravenously and irradiate under 500 nm light (10 mW/cm^2, 60 min);
Group 3: injected by physiological saline (50 μL) and treated with 800 nm laser (50 mW, 1 kHz, pulse width 35 fs, 5 s/mm) 1 h after injection;
Group 4: injected by physiological saline (50 μL) and treated with 500 nm light (10 mW/cm^2, 60 min);
Group 5: intravenous injected 7 (2 mg/Kg 50 μL);
Group 6: injected 50 μL physiological saline.
The mice were anesthetized by the injection of 4% chloral hydrate aqueous solution (0.2 mL/20 g) before treatment. The tumour volume and body weight were measured and record for each two days. Tumor volume was calculated by the following formula
After the treatment, the mice were euthanized. The tumour was collected and fixated by 4% paraformaldehyde, and then obtained as paraffin-embedded samples and stained with hematoxylin and eosin (H&E). A Carl Zeiss Axio Imager Z2 microscope was used to observe the tissue structure and cell state of the sections.

Consider “[Ru(bipy)2((E,E′)-4,4′-Bis[p-(N,N-methoxy)styryl]-2,2′-bipyridine)][PF6]2 [Compound 7]”, for which the “behaviour of treated animals” value (2 mg/Kg intravenously) was “behave normally, without signs of pain, stress or discomfort”. Also, the “tumour volume, PDT treated” value (2 mg/Kg intravenously plus 2P irradiation at 800 nm or 1P irradiation at 500 nm, 15 days) was “drastically shrank until they were nearly eradicated”. Where the note is “2 mg/Kg intravenously, no irradiation”, the “tumour volume, compound only” value is “did not show any significant effect”.

These data come from patent US20220409727A1, “Metal Complexes Bearing Bisstyryl-Bipyridine Ligand and Their Use as Photosensitizer Agent in One and Two-Photon Photodynamic Therapy” (Paris Sciences et Lettres, priority 2019, published 2022).
